Structures are written as SMILES. In brackets after ≈: the same amount, converted by molar mass. Read-outs that look alike come from different tables or passages of the source.

Common to all, as to test: standard MIC test
Type in all cases: cell-based

For assay [1], the system named is Escherichia coli 0111. From the text:
(§1) In a standard MIC test the following data were obtained.

The test system of assay [2] is Salmonella typhimurium CT10. The following applies: Salmonella enterica.
Excerpt: as §1

In assay [3] the test system is Staphylococcus aureus Russell.
Excerpt: as §1

Assay [4] has as its system E.coli JT39. The following applies: Escherichia coli.
Excerpt: as §1

For the compound `C[C@H](O)[C@@H]1C(=O)N2C(C(=O)[O-])=C(Sc3ncccn3)[C@H](C)[C@@H]12.[Na+]` (racemic) [Example 16, Sodium (4RS,5RS,6RS)-4-methyl-6-[(1SR)-1-hydroxyethyl]-3-(pyrimidin-2-ylthio)-7-oxo-1-azabicyclo[3.2.0]hept-2-ene-2-carboxylate], the values for the MIC in assay [1], in assay [2] (TYPHIMURIUM) and in assay [3] (Staphylococcus aureus) were 1.6 µg/mL, 1.6 µg/mL and 0.4 µg/mL, respectively.

For the compound `C[C@@H](O)[C@H]1C(=O)N2C(C(=O)O)=C(Sc3ncccn3)[C@H](C)[C@H]12` (racemic) [Example 40], the MIC stood at 1.6 µg/mL (≈ 4.98 µM) in assay [4] (E.coli JT39, read-out: M.I.C); 6.2 µg/mL (≈ 19.3 µM) in assay [2] (Salmonella typhimurium CT10, read-out: MIC); 0.4 µg/mL (≈ 1.24 µM) in assay [3] (Staphylococcus aureus Russell, read-out: MIC).

In the case of `C[C@@H]1C(Sc2ncccn2)=C(C(=O)[O-])N2C(=O)[C@H]([C@@H](C)O)[C@@H]12.[Na+]` [Example 30, Sodium (4S,5S,6S)-4-methyl-6-[(1R)-1-hydroxyethyl]-3-(pyrimidin-2-ylthio)-7-oxo-1-azabicyclo [3.2.0] hept-2-ene-2-carboxylate], the MIC in assay [4] (JT39) was found to be 0.8 µg/mL; in assay [2] (TYPHIMURIUM), 3.1 µg/mL; in assay [3] (Staphylococcus aureus), 0.8 µg/mL.

Source of the values: EP0089139A2, “Antibiotics, their preparation and use” (BEECHAM GROUP PLC, priority 1982, dated 1983).
